What was measured:
[1] = test system: STZ-induced diabetic mice; assay: Vascular abnormalities (FITC-BSA hemorrhaging areas) in the retina of STZ-induced diabetic mice; assay type: in vivo, mouse; conditions: 200 μM eye drop three times a day for 14 days, vehicle control 8.2±1.5
Experimental: Diabetic mice were generated by intraperitoneal injection of streptozotocin (STZ; 200 mg/kg body weight) at day 1 and day 3. STZ was freshly prepared in 0.1 M citrate buffer (pH 4.5). After injection, mice were supplied with 10% sucrose overnight to prevent sudden hypoglycaemic shock. After 1 week (day 7), mice with non-fasting blood glucose levels >500 mg/dl were defined as diabetic and used for the experiments. Balanced salt solution (BSS) was served as peptide vehicle (Alcon, Novartis). 6-mer analogues (dissolved in BSS to 200 μM) eye drop were topically administered to eyes three times a day. After 2 weeks (day 14), mice were intraperitoneal injection of 100 mg/kg of FITC-BSA for further 30 min to determine vascular lesions (hemorrhaging areas) in retina. Subsequently, the animals were euthanized by CO2 inhalation, and the eyes were enucleated and fixed with 4% PFA for overnight at 4° Cand flat-mounted onto glass slides to obtain optical sections. Vascular lesions in the retina was scored in all four retinal quadrants of flat mounts by an epifluorescence microscopy at 200×. Three microscopic fields were sampled in each quadrant in both the central and peripheral retina, and data were presented as the average number of lesions/retina.
Microscopic appearance of degenerate capillaries in the I/R-induced retina are similar to that of acellular capillaries found in diabetic retinopathy. […]

[2] = test system: Sprague-Dawley rats, retinal ischemia/reperfusion (I/R) injury; assay: Retinal vasculature analysis (acellular capillaries) 14 days after I/R injury; assay type: in vivo; conditions: rat
Experimental: Experimental procedures were approved by the Mackay Memorial Hospital Review Board (Taiwan, R.O.C.). All surgeries were performed under aseptic conditions. Adult 10-week-old male Sprague-Dawley rats (initial body weight=312±11 g) were anesthetized by an intraperitoneal injection of xylazine (10 mg/kg). Peptide was dissolved in 0.85% normal saline to 1 mM and delivered by the subconjunctival injection of 100 μL peptide through a 31-Gneedle with a micro-syringe before the induction of I/R. Normal saline was as a vehicle control. Rat I/R was performed after peptide or vehicle injection for 4 h. Pupils were dilated with 0.5% tropicamide and 0.5% phenylephrine. Body temperature was maintained at 37° C. using a heating blanket After dilation of the pupil, the anterior chamber of the right eye was cannulated with a 27-gauge needle connected to a physiological saline reservoir. The intraocular pressure (IOP) was raised to 110 mmHg by keeping the reservoir at 150 cm above the eye, and retinal ischemia was confirmed by observing whitening of the iris and the loss of the red reflex of the retina. After 90 min of ischemia, the cannulating needle was withdrawn and the IOP was returned to normal pressure, resulting in recovery of the blood supply from the retinal artery and reperfusion injury induced. The reperfusion was evident by the return of the red reflex. Corneal analgesia was achieved using 1 or 2 drops of 0.4% oxybuprocaine hydrochloride, and Ofloxacin ophthalmic gel (0.3%) was applied topically to the eye before and after the procedure. Only the right eye was used in all experiments. A sham procedure was performed at left eye served as an intra-animal control.
Rats (n=6 in each group) were euthanized using an overdose of pentobarbital at 14 days after I/R injury, the eyeballs were fixed with 4% PFA for overnight at 4° C. […] Ten sections per eye were averaged and the mean of six eyes was recorded as the representative value for each group.

With “NH2-(D-Ser)-Leu-Gly-Ala-Glu-Gln-COOH (SLGAEQ; HELM PEPTIDE1{[dS].L.G.A.E.Q}$$$$V2.0; SMILES CC(C)C[C@H](NC(=O)[C@H](N)CO)C(=O)NCC(=O)N[C@@H](C)C(=O)N[C@@H](CCC(=O)O)C(=O)N[C@@H](CCC(N)=O)C(=O)O) [6-mer dS]” the “numbers of vascular lesions (hemorrhaging areas in a retina)” value [1] was 2.8±0.6 lesions/retina, the “number of degenerate capillaries, in words” value ([2]; 14 days after I/R injury) was “The number of degenerate capillaries was reduced” and the “Number of acellilar capillaries” value ([2]; 14 days post-ischemia, Vehicle + I/R 7.2 ± 0.9) was 2.3 ± 0.7 /mm^2. The “cytotoxic effect on retinal vasculature” value ([2]; sham testing in contralateral eye) was “had no cytotoxic effect on retinal vasculature”.
